These compounds were tested against T1, Kinase A and SpoOF (Bacillus subtilis, UniProt P16497) (assay: Autophosphorylation of Kinase A and Transphosphorylation of SpoOF Assay (HPK in vitro assay)). Details: inhibition of KinA autophosphorylation / SpoOF transphosphorylation, inhibitor concentrations from 1 to 500 μM.
T1 construct: made in house; host or cells: recombinant E. coli (overexpression)
T1 sequence (P16497 1-606): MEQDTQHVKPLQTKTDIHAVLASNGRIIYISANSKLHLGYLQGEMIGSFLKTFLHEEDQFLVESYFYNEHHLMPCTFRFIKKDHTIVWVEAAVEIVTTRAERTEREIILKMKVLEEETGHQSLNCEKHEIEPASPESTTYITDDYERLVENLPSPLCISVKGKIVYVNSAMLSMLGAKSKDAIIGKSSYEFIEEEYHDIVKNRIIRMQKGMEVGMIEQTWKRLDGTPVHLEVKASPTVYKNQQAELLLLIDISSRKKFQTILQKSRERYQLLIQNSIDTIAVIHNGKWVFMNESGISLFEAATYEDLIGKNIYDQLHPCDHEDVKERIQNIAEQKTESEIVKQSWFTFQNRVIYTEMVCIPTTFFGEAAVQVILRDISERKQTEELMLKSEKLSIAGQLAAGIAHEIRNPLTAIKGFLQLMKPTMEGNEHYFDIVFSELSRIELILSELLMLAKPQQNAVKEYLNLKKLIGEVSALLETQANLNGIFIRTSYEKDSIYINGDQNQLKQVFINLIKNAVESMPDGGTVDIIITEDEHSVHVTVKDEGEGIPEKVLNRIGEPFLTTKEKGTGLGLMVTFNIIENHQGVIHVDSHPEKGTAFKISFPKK
Assay type: biochemical
Description: 1. Autophosphorylation of Kinase A and Transphosphorylation of SpoOF Assay
To study the effect of the compounds of the present invention on the signal transduction process in bacteria, the inhibiting effect of the compounds on the sporulation operon proteins Kinase A and SpoOF was examined. Specifically, the inhibition of autophosphorylation of Kinase A and the transphosphorylation of SpoOF was determined in the following assays. The SpoOF response regulator is the primary substrate for phosphorylation by the protein kinase, Kin A, involved in the sporulation process in bacteria. See D. Burbulys, K. A. Trach, J. A. Hoch, Cell, 64, 545-552 (1991). SpoOF and KinA were prepared from recombinant E. coli overexpressing the proteins (J. Cavanagh et al, Amino Acids, 6, 131-140 (1994) and references therein).
The following stock reagents were either prepared and used promptly or stored at the indicated temperature:
8× Salts: 2M KCl (5 mL), 1M MgCl2 (800 mL), 1M CaCl2 (100 mL), 10 mg/mL phenylmethylsulfonyl fluoride (200 mL), 1M dithioreitol (50 mL), 0.25M Na2 EDTA (32 mL) and H2 O 3.82 mL (-20° C.)
5× Loading Dye: 0.5M TRIS-HCl-pH 6.8 (7.5 mL), 10% SDS (2 mL) 0.1% bromophenol blue (0.5 mL), 100% glycerol (3 mL) and 12.5M 2-mercaptoethanol (0.3 mL)
1-1.3 mg/mL KinA:15 mM TRIS-HCl, pH 8.0, 6 mM KCl; 4 mM 2-mercaptoethanol; 40% glycerol (-20° C.)
1 mg/mL SpoOF: 17.5 mM TRIS-HCl, pH 8.0; 0.7 mM KCl; 0.7 mM MgCl2; 0.7 mM CaCl2; 5mM 2-mercaptoethanol; 30% Glycerol (-20° C.)
5% Stacking Gel: 40% 29:1 acrylamide:bis acrylamide (1.25 mL), 0.5M TRIS-HCl, pH 6.8 (2.5 mL), 10% SDS (0.1 mL), D-H2 O (6.15 mL) 10% ammonium persulfate (100 mL) and TEMED (25 mL)
SDS Running Buffer: TRIS-BASE (3.02 g), glycine (14.4 g) SDS (1 g), D-H2 O (to 1 L)
The reaction mixture was prepared from 8× Salts (87 μL), 1M TRIS, pH 8 (118 μL), 50% glycerol (63 μL), SpoOF (14.1 μL) and KinA (7.0 μL). Microcentrifuge tubes were charged with the reaction mixture (18.5 μL) and a 1.0 mM solution of the test compound in 5% DMSO (18.5 μL), and incubated for 15 min on ice. 100 mM ATP solution (3.0 μl, containing 625 μCi [^32 P]ATP) was added, and the mixture left for 10 minutes at room temperature. The reaction was quenched with 5× loading dye (10 μL per tube) and the samples were loaded on a prepared 5% Stacking Gel, or stored on dry ice until ready for use. The prepared wells were filled with SDS Running Buffer, samples were loaded into the wells, and 80 volts were applied to the gel until the dye front reached the bottom of the stacking gel. The voltage was then increased to 250 volts until electrophoresis was complete. Radioactive bands in the gel corresponding to phosphorylated KinA and SpoOF were imaged and quantitated with a phosphoimager.
If either enzyme was inhibited (as evidenced by the absence of labelled protein in the developed gel), an IC50 was calculated by running the assay with a range of inhibitor concentrations from 1 to 500 μM. After electrophoresis of the reaction mixtures, percent inhibition was determined by measuring the concentration of radioactive phosphorus with a phosphoimager and calculating the values using a software program (BioRad Molecular Analyst). IC50 values of less than 500 μM are considered active.
`N=C(N)NCCc1ccc(OCCC2Oc3ccccc3N(Cc3ccncc3)C2=O)cc1` (stereo not drawn) [Compound 42, 3,4-Dihydro-2-{2-[4-(2-guanidinoethyl)phenoxy]ethyl}-3-oxo-4-(4-picolyl)-2H-1,4-benzoxazine] was tested, and the IC50 was 444 µM.
`N=C(N)NCCc1ccc(OCCC2Oc3ccccc3N(Cc3cccc4ccccc34)C2=O)cc1` (stereo not drawn) [Compound 43, 3,4-Dihydro-2-{2-[4-(2-guanidinoethyl)phenoxy]ethyl}-4-(1-naphthylmethyl)-3-oxo-2H-1,4-benzoxazine] was tested, and the IC50 was 13 µM.
In the case of `N=C(N)NCCc1ccc(OCCC2Oc3ccccc3N(Cc3ccc4ccccc4c3)C2=O)cc1` (stereo not drawn) [Compound 45, 3,4-Dihydro-2-{2-[4-(2-guanidinylethyl)phenoxy]ethyl}-4-(2-naphthylmethyl)-3-oxo-2H-1,4-benzoxazine], the IC50 is reported as 17 µM.
`N=C(N)NCCc1ccc(OCCC2Oc3ccccc3N(Cc3ccsc3)C2=O)cc1` (stereo not drawn) [Compound 46, 3,4-Dihydro-2-{2-[4-(2-guanidinylethyl)phenoxy]ethyl}-3-oxo-2H-4-(3-thienylmethyl)-1,4-benzoxazine] showed an IC50 of 68 µM.
For `CC(C)(C)OC(=O)N=C(NCCc1ccc(OCCC2Oc3ccccc3N(Cc3csc(Cl)c3)C2=O)cc1)NC(=O)OC(C)(C)C` (stereo not drawn) [Compound 47, 2-{2-[4-[2-(N,N-Bis-tert-butoxycarbonylguanidino)ethyl]phenoxy]ethyl}-4-(2-chloro-4-thienylmethyl)-3,4-dihydro-3-oxo-2H-1,4-benzoxazine], the IC50 was 398 µM.
`N=C(N)NCCc1ccc(OCCC2Oc3ccccc3N(Cc3csc(Cl)c3)C2=O)cc1` (stereo not drawn) [Compound 48, 4-(2-Chloro-4-thienylmethyl)-3,4-dihydro-2-{2-[4-(2-guanidinoethyl)phenoxy]ethyl}-3-oxo-2H-1,4-benzoxazine] gave an IC50 of 26 µM.
With `N=C(N)NCCc1ccc(OCCC2Oc3ccc(-c4ccccc4)cc3N(Cc3cccc(Cl)c3)C2=O)cc1` (stereo not drawn) [Compound 52, 4-(3-Chlorobenzyl)-3,4-dihydro-2-{2-[4-(2-guanidinoethyl)phenoxy]ethyl}-3-oxo-6-phenyl-2H-1,4-benzoxazine] the IC50 was 36 µM.
Work on `CC(C)(C)OC(=O)N=C(NCCc1ccc(OCCC2Oc3ccc(C(F)(F)F)cc3N(Cc3cccc(Cl)c3)C2=O)cc1)NC(=O)OC(C)(C)C` (stereo not drawn) [Compound 53, 2-{2-[4-[2-(N,N'-Bis-tert-butoxycarbonylguanidino)ethyl]phenoxy]ethyl}-4-(3-chlorobenzyl)-3,4-dihydro-3-oxo-6-trifluoromethyl-2H-1,4-benzoxazine] yielded an IC50 of 84 µM.
`N=C(N)NCCc1ccc(OCCC2Oc3ccc(C(F)(F)F)cc3N(Cc3cccc(Cl)c3)C2=O)cc1` (stereo not drawn) [Compound 54, 4-(3-Chlorobenzyl)-3,4-dihydro-2-{2-[4-(2-guanidinoethyl)phenoxy]ethyl}-3-oxo-6-trifluoromethyl-2H-1,4-benzoxazine] showed an IC50 of 14 µM.
In the case of `N=C(N)NCCc1ccc(OCCC2Oc3cc(F)ccc3N(Cc3cccc(Cl)c3)C2=O)cc1` (stereo not drawn) [Compound 55, 4-(3-Chlorobenzyl)-3,4-dihydro-7-fluoro-2-{2-[4-(2-guanidinoethyl)phenoxy]ethyl}-3-oxo-2H-1,4-benzoxazine], the IC50 is reported as 28 µM.
For `N=C(N)NCCc1ccc(OCCC2Oc3c(Cl)cc(Cl)cc3N(Cc3cccc(Cl)c3)C2=O)cc1` (stereo not drawn) [Compound 57, 4-(3-Chlorobenzyl)-6,8-dichloro-2-{2-[4-(2-guanidinoethyl)phenoxy]ethyl}-3,4-dihydro-3-oxo-2H-1,4-benzoxazine], the IC50 was 17 µM.
Compound `CN1C(=O)C(CCOc2ccc(CCNC(=NC(=O)OC(C)(C)C)NC(=O)OC(C)(C)C)cc2)Oc2ccccc21` (stereo not drawn) [Compound 59, 2-{2-[4-[2-(N,N'-Bis-tert-butoxycarbonylguanidino)ethyl]phenoxy]ethyl}-3,4-dihydro-4-methyl-3-oxo-2H-1,4-benzoxazine] has an IC50 of 473 µM.
`N=C(N)NCCc1ccc(OCCC2Oc3ccncc3N(Cc3cccc(Cl)c3)C2=O)cc1` (stereo not drawn) [Compound 62, 4-(3-Chlorobenzyl)-3,4-dihydro-2-[2-[4-(2-guanidinoethyl)phenoxy]ethyl]-3-oxo-2H-pyrido[4,3-b]-1,4-oxazine] was tested, and the IC50 was 174 µM.
`Cc1ccc(CN2CC(CCOc3ccc(CCNC(=N)N)cc3)Oc3ccccc32)cc1` (stereo not drawn) [Compound 66, 3,4-Dihydro-2-{2-[4-[2-guanidinoethyl]phenoxy]ethyl}-4-(4-methylbenzyl)-2H-1,4-benzoxazine] showed an IC50 of 19 µM.
For `N=C(N)NCCc1ccc(OCCC2CN(Cc3ccc(Cl)cc3Cl)c3ccccc3O2)cc1` (stereo not drawn) [Compound 68, (2,4-Dichlorobenzyl)-3,4-dihydro-2-{2-[4-(2-guanidinoethyl)phenoxy]ethyl}-4-2H-1,4-benzoxazine], the IC50 was 17 µM.
For `CC(C)(C)OC(=O)NCCc1cccc(OCCC2Oc3ccccc3N(Cc3cccc(Cl)c3)C2=O)c1` (stereo not drawn) [Compound 69, 2-{2-[3-(2-(t-Butoxycarbonylamino)ethyl)phenoxy]ethyl}-4-(3-chlorobenzyl)-3,4-dihydro-3-oxo-2H-1,4-benzoxazine], the IC50 was 358 µM.
For `CC(C)(C)OC(=O)N=C(NCCc1ccc(OCCC2Oc3ccccc3N(Cc3cccc(Cl)c3)C2=O)cc1)NC(=O)OC(C)(C)C` (stereo not drawn) [Compound 71, 2-{2-[4-[2-(N,N-'Bis-tert-butoxycarbonylguanidino)ethyl]phenoxy]ethyl}-4-(3-chlorobenzyl)-3,4-dihydro-3-oxo-2H-1,4-benzoxazine], the IC50 was 300 µM.
Work on `CC(C)(C)OC(=O)NCc1cccc(OCCC2Oc3ccccc3N(Cc3cccc(Cl)c3)C2=O)c1` (stereo not drawn) [Compound 73, 2-{2-[3-(t-Butoxycarbonylaminomethyl)phenoxy]ethyl}-4-(3-chlorobenzyl)-3,4-dihydro-3-oxo-2H-1,4-benzoxazine] yielded an IC50 of 354 µM.
Work on `CC(C)(C)OC(=O)N=C(NCc1ccc(OCCC2Oc3ccccc3N(Cc3cccc(Cl)c3)C2=O)cc1)NC(=O)OC(C)(C)C` (stereo not drawn) [Compound 77, 2-{2-[4-[(N,N-'Bis-tert-butoxycarbonyl)guanidinomethyl]phenoxy]ethyl}-4-(3-chlorobenzyl)-3,4-dihydro-3-oxo-2H-1,4-benzoxazine] yielded an IC50 of 51 µM.
Compound `CC(C)(C)OC(=O)N=C(NCCc1ccc(OCCC2Oc3cc([N+](=O)[O-])ccc3N(Cc3cccc(Cl)c3)C2=O)cc1)NC(=O)OC(C)(C)C` (stereo not drawn) [Compound 80] has an IC50 of 162 µM.
`Cl.NCCc1ccc(OCCC2Oc3cc([N+](=O)[O-])ccc3N(Cc3cccc(Cl)c3)C2=O)cc1` (stereo not drawn) [Compound 82, 2-{2-[4-(2-Aminoethyl)phenoxy]ethyl}-4-(3-chlorobenzyl)-3,4-dihydro-7-nitro-3-oxo-2H-1,4-benzoxazine monohydrochloride] showed an IC50 of 27 µM.
